Experiments:
[1] = system: IL-17-induced GROα secretion from HT-29 cells; experiment: HT-29 cellular assay (IL-17-induced GROα secretion); type: cell-based; settings: Homo sapiens
Description: To test the ability of a compound of the invention to neutralize or antagonize IL-17 bioactivity, the following cell-based assay was used. IL-17 can stimulate epithelial cells and other cells to secrete GROα. The ability of a compound of the invention to neutralize IL-17-induced GROα secretion from the human colorectal adenocarcinoma epithelial cell line HT-29 is tested in this assay.
HT-29 cells (human colorectal adenocarcinoma epithelial cells, ATCC #HTB-38), were maintained in culture/assay medium in tissue culture-treated flasks using standard techniques. HT-29 cells were grown in tissue culture flasks until they were 50-80% confluent on the day before the assay. The day before the assay, the cells were detached from the culture flasks with trypsin+EDTA. The trypsin was inactivated with complete assay medium. HT-29 cells were then centrifuged at 500×g for 5 minutes at room temperature. The cell pellet was then re-suspended in Defined Keratinocyte SFM (Invitrogen #10766019)+10% FCS and 50,000 HT-29 cells (in 100 μl) were added to each treatment well of the 96-well plates. The 96-well plates were placed in a tissue culture incubator (37° C., 5% CO2) overnight. The next day, the media was removed from the cells and the cells were washed twice with Defined Keratinocyte SFM. In a separate 96-well plate, compounds to be tested were serially diluted in Defined Keratinocyte SFM and run in triplicate in 100 μL total volume. To these compound samples were then added 100 μL of human IL-17 at a concentration of 20 ng/mL in Defined Keratinocyte SFM for serum-free assays. 150 μL of the compound/IL-17 mixture was then added to the cells from which the media has previously been removed. The cells were grown for 48 hours in Defined Keratinocyte SFM in a tissue culture incubator (37° C., 5% CO2).
At the end of the incubation, the plates are centrifuged (500×g for 5 minutes at room temperature), and the cell culture media is transferred to polypropylene 96-well plates. The supernatant was used neat in the ELISA. GROα levels are measured with a GROα sandwich ELISA (R+D Systems DuoSet #DY275E), as per the manufacturer's instructions. The ELISA plates were previously coated with mAb 275 (R+D Systems) at 4 μg/mL. GROα is detected using biotinylated goat anti-human GROα (R+D Systems BAF275) at 200 ng/mL using TMB as a substrate. At the end of the ELISA reactions, plates are read at 450 nm on a microplate reader and compared to a standard calibration curve.

IL17A = biological target: T1, IL17A (Homo sapiens, UniProt Q16552); experiment: Surface Plasmon Resonance (SPR) analysis of compound interactions with IL17A; settings: SPR binding to IL17A
T1 sequence (Q16552 24-155): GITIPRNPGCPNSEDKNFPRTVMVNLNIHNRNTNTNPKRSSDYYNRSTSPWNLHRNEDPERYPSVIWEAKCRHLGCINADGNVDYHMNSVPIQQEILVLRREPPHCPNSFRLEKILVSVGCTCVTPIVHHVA
Procedure, shortened: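 His-tagged IL17A captured on a Ni-NTA chip; five 2- or 3-fold compound dilutions from 50 μM injected for 180 s, 120 s dissociation, in HEPES-saline buffer with 0.5% DMSO. Baseline-subtracted sensorgrams fitted 1:1 for ka, kd and KD; Kd also derived from binding extent per concentration.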

SMILES | IC50 [1] [µM] | Kd (IL17A) [µM]
COC(=O)[C@@H]1CCCCNC(=O)CCCNC(=O)[C@@H](Cc2ccc(NC(=O)[C@H](Cc3ccccc3F)NC(=O)Cc3ccccc3)cc2)NC(=O)CC2(CCCC2)CC(=O)N1 [Compound 106] | > 10 | 0.1 to 1
COC(=O)[C@@H]1CCCCNC(=O)CNC(=O)[C@@H](Cc2ccc(NC(=O)[C@H](Cc3ccccc3Cl)NC(=O)Cc3ccccc3)cc2)NC(=O)CC2(CCCC2)CC(=O)N1 [Compound 143] | < 1 | < 0.1
COC(=O)[C@@H]1CCCCNC(=O)CNC(=O)[C@@H](Cc2ccc(NC(=O)[C@H](Cc3ccccc3Cl)NC(=O)c3ccccc3)cc2)NC(=O)CC2(CCCC2)CC(=O)N1 [Compound 144] | 1 to 10 | < 0.1
O=C1CNC(=O)[C@@H](Cc2ccc(NC(=O)[C@H](Cc3ccc(Cl)cc3Cl)NC(=O)Cc3ccc(O)cc3)cc2)NC(=O)CC2(CCCC2)CC(=O)NCCCCCN1 [Compound 191] | < 1 | < 0.1
O=C1CNC(=O)[C@@H](Cc2ccc(NC(=O)[C@H](Cc3ccccc3Cl)NC(=O)c3cccnc3)cc2)NC(=O)CC2(CCCC2)CC(=O)NCCCCCN1 [Compound 194] |  | < 0.1
O=C1CNC(=O)[C@@H](Cc2ccc(NC(=O)[C@H](Cc3ccccc3Cl)NC(=O)Cc3ccccn3)cc2)NC(=O)CC2(CCCC2)CC(=O)NCCCCCN1 [Compound 226] |  | < 0.1

The remaining lines, values ahead:

IC50 [1] [µM] | Kd (IL17A) [µM] | SMILES
< 1 | < 0.1 | O=C1CNC(=O)[C@@H](Cc2ccc(NC(=O)[C@H](Cc3ccccc3Cl)NC(=O)Cc3ccccc3)cc2)NC(=O)CC2(CCCC2)CC(=O)NCCCCCN1 [Compound 159]
1 to 10 | < 0.1 | O=C1CNC(=O)[C@@H](Cc2ccc(NC(=O)[C@H](Cc3ccc(Cl)cc3Cl)NC(=O)Cc3ccccc3)cc2)NC(=O)CC2(CCCC2)CC(=O)NCCCCCN1 [Compound 185]
 | < 0.1 | O=C1CNC(=O)[C@@H](Cc2ccc(NC(=O)[C@@H](NC(=O)Cc3ccccc3)C3CCCCC3)cc2)NC(=O)CC2(CCCC2)CC(=O)NCCCCCN1 [Compound 186]

From patent publication US9284283B2, “Macrocyclic compounds for modulating IL-17” (ENSEMBLE THERAPEUTICS CORPORATION, priority 2012, dated 2016)
